Measured values reported in US7119256B2, “Gene encoding acetolactate synthase” (priority 2000, dated 2006).
“And” between values parts separate entries of the source, which are not always exact repeats. Equal entries are not always repeated.

Key:
wild type ALS protein = target: T1, wild type ALS protein (Oryza sativa subsp. japonica, UniProt Q6K2E8); assay: Herbicide sensitivity of partially purified wild type ALS protein (acetoin colorimetric ALS activity); format: biochemical, rice (Kinmaze); set-up: the wild type ALS protein was separated and purified in the same manner and used for the experiment; from tissue; host or cells: wild type rice (Kinmaze) cultured cells, liquid culture; ammonium sulfate, Sephadex G-25, HiTrap Q
T1 sequence (Q6K2E8 44-644): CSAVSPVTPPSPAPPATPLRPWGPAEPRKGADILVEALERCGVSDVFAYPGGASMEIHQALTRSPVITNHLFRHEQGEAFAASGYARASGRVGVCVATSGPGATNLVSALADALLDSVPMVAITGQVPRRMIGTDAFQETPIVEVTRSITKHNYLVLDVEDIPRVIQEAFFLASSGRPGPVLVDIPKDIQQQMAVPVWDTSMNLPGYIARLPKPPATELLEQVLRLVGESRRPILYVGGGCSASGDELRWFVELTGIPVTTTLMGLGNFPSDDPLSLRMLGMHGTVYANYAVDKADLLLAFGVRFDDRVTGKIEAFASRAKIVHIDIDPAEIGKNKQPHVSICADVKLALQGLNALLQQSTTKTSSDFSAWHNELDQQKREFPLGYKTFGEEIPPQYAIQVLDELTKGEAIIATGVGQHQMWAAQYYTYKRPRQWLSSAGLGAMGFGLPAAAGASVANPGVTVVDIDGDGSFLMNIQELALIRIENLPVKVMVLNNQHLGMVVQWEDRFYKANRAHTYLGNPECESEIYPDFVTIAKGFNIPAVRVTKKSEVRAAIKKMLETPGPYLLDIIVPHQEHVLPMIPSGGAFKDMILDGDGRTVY

S627I mutant ALS = target: T2, S627I mutant ALS (Oryza sativa subsp. japonica, UniProt Q6K2E8, S627I); assay: Herbicide sensitivity of crude ALS with S627I mutation only, 1 mM valine; format: biochemical, rice; conditions: crude enzyme
T2 construct: one type of cDNA containing a full length ALS gene could be obtained from a cDNA library derived from the wild type; made in house; host or cells: E. coli JM 109, pGEX-2T backbone; crude enzyme solution
T2 sequence (Q6K2E8 44-644 S627I): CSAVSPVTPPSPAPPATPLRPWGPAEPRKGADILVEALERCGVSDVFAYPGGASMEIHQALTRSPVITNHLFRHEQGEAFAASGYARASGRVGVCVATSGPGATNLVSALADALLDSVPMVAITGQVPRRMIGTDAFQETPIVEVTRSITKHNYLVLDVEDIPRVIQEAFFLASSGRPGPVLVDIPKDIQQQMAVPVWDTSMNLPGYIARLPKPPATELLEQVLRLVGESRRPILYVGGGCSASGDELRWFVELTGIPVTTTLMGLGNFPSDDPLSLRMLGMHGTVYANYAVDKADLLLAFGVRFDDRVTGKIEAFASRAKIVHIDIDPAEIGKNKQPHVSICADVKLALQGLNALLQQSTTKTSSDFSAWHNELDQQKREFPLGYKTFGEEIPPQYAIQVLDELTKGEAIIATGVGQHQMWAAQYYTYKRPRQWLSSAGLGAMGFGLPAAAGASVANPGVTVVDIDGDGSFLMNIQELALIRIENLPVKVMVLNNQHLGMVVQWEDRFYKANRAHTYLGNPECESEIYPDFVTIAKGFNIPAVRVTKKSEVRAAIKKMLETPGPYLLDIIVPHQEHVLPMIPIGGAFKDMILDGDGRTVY
Description: (§1) A plasmid having W548L mutant ALS gene or a plasmid having S627I mutant ALS gene was transformed into E. coli strain JM 109. The colonies obtained from transformation were subjected to liquid culture, expression of GST induction protein was induced in the same manner as in Examples 4 and 5, a crude enzyme solution was prepared, and then herbicide sensitivity of ALS was examined in the presence of 1 mM valine.

W548L mutant ALS = target: T3, W548L mutant ALS (Oryza sativa subsp. japonica, UniProt Q6K2E8, W548L); assay: Herbicide sensitivity of crude ALS with W548L mutation only, 1 mM valine; format: biochemical, rice; conditions: crude enzyme
T3 construct: one type of cDNA containing a full length ALS gene could be obtained from a cDNA library derived from the wild type; made in house; host or cells: E. coli JM 109, pGEX-2T backbone (pGEX-2T-wALS); crude enzyme solution
T3 sequence (Q6K2E8 44-644 W548L): as the sequence (Q6K2E8 44-644 S627I) above, with W505L, I584S counted along it
Description: as §1

mutant ALS protein [1] = target: mutant ALS protein (Oryza sativa subsp. japonica, UniProt Q6K2E8, S627I/W548L); assay: Herbicide sensitivity of ALS partially purified from the resistant mutant (acetoin colorimetric ALS activity); format: biochemical, rice (Kinmaze); set-up: from tissue; host or cells: resistant mutant rice (Kinmaze) cultured cells, liquid culture; ammonium sulfate, Sephadex G-25, HiTrap Q
Sequence of mutant ALS protein (Oryza sativa subsp. japonica, UniProt Q6K2E8, S627I/W548L) (Q6K2E8 44-644 W548L/S627I): as the sequence (Q6K2E8 44-644 S627I) above, with W505L counted along it
Description: (§2) First, 200 g or more of resistant mutant was prepared by a liquid culture method (no supplementation with bispyribac-sodium), the culture having a composition as shown in Table 1 but without Gelrite. Then, about 150 g of the resistant mutant was homogenized using Hiscotron in a volume of buffer-1 [100 mM potassium phosphate buffer (pH 7.5) containing 20% (v/v) glycerol, 0.5 mM thiamin pyrophosphate (TPP), 10 μM flavin adenine dinucleotide (FAD), 0.5 mM MgCl2, and a volume of polyvinyl polypyrrolidone one-tenth that of tissue volume] 3-fold greater than tissue volume. The homogenate was filtered through nylon gauze, and then centrifuged at 15,000×g for 20 min. Ammonium sulfate was added to the centrifuged supernatant to 50% saturation, and then allowed to stand in ice for approximately 1 hour. The mixture was again centrifuged at 15,000×g for 20 min, and then the precipitated fraction was dissolved in about 30 ml of buffer-2 [10 mM Tris hydrochloric acid buffer (pH 7.5) containing 20% (v/v) glycerol, 0.5 mM TPP and 0.5 mM MgCl2]. […]
(§3) Next, the protein concentration of the crude enzyme solution was measured by the Bradford method according to the manual of Bio-Rad Protein Assay. […]
(§4) ALS activity resulting from the mutant ALS protein contained in the eluted fractions apportioned into each test tube for apportion was measured as follows. A reaction solution to be used in a measurement reaction was prepared by mixing an eluted fraction to be measured with a solution comprising 20 mM sodium pyruvate, 0.5 mM TPP, 0.5 mM MgCl2, 10 μM FAD and 20 mM potassium phosphate buffer (pH 7.5). […] After the eluted fraction to be measured was added, the measurement reaction was performed at 30° C. for 40 to 60 min. […]
(§5) Then, to quantify acetoin contained in the reaction solution, 1 ml of 0.5% (w/v) creatine and 1 ml of 5% (w/v) α-naphthol dissolved in 2.5 N sodium hydroxide was added to the reaction solution, followed by incubation at 37° C. for 10 min. Acetoin was then quantified by color comparison of the absorbance (at 525 nm) of the reaction solution, thereby evaluating ALS activity. […]

mutant ALS protein [2] = assay: as above; format: biochemical, rice (Kinmaze)
Description: as §2, §3, §4, §5

ALS isozyme I = target: T4, ALS isozyme I (Escherichia coli, UniProt P08142+P0ADF8); assay: Inhibition by valine of ALS activity derived from E. coli (no plasmid); format: biochemical
T4 construct: CK1 (without plasmid); endogenous in cells
T4 sequence (P0ADF8 whole entry): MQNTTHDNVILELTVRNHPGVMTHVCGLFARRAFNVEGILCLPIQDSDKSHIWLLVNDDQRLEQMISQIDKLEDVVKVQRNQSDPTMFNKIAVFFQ
T4 sequence (P08142 whole entry): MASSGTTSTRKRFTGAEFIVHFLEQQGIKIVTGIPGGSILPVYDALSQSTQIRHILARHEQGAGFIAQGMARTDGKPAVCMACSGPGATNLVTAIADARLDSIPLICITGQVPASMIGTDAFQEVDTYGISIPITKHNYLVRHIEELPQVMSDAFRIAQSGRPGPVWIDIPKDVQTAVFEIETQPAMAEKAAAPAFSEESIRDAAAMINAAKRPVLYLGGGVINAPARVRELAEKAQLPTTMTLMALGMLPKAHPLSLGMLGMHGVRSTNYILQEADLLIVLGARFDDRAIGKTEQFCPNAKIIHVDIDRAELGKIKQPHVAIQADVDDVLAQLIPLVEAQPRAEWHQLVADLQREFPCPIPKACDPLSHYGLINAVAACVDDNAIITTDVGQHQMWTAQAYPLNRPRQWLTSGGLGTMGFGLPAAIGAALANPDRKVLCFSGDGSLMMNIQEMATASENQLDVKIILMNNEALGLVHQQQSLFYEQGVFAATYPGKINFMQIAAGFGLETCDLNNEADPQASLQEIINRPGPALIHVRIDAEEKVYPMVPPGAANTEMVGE
Description: ALS activity resulting from the mutant ALS protein contained in the eluted fractions apportioned into each test tube for apportion was measured as follows. A reaction solution to be used in a measurement reaction was prepared by mixing an eluted fraction to be measured with a solution comprising 20 mM sodium pyruvate, 0.5 mM TPP, 0.5 mM MgCl2, 10 μM FAD and 20 mM potassium phosphate buffer (pH 7.5). One ml of this reaction solution was used. After the eluted fraction to be measured was added, the measurement reaction was performed at 30° C. for 40 to 60 min. Then, the reaction was stopped by addition of 0.1 ml of 6N sulfuric acid (or 0.25 N sodium hydroxide).
The prepared ALS enzyme contains ALS activity derived from E. coli.

[3] = 1 mM Valine, E. coli without plasmid

Compound: CC(C)C1(C)N=C(c2nc3ccccc3cc2C(=O)O)NC1=O (stereo not drawn) [Imazaquin, imazaquin]
- IC50 (wild type ALS protein): 1.48 µM
- resistance imparted by S627I mutation alone (S627I mutant ALS): results were similar to those for bispyribac-sodium
- resistance imparted by W548L mutation alone (W548L mutant ALS): results were similar to those for bispyribac-sodium
- IC50 (mutant ALS protein [1]): 16.7 µM
- RS ratio Resistant mutant: I50 (resistant mutant)/I50 (wild type) (mutant ALS protein [2]): 11.3

Compound: CC(C)[C@H](N)C(=O)O [Valine, valine]
- ALS activity (ALS isozyme I; [3]): 0.1768 OD525/40 min/0.05 ml and 0.1831 OD525/40 min/0.05 ml
- Inhibition rate (ALS isozyme I; [3]): 88%
- inhibition at 1000 µM (ALS isozyme I; 1 mM Valine, E. coli without plasmid, read-out: Inhibition rate): 86%
- inhibition of ALS activity derived from E. coli (ALS isozyme I; 1 mM valine): almost completely inhibited
